According to the supplement of paper PMC10307832:

Key:
Assay in all cases: relative viability (nuclei count vs DMSO), 5 days (fraction); higher = more cells survive
[1] = compound: C1=CC2=C(C=C(C(=C2N=C1)O)N=NC3=CC4=C(C=C3)C=C(C=C4)S(=O)(=O)O)S(=O)(=O)O + CS(=O)(=O)N1CCN(Cc2cc3nc(-c4cccc5[nH]ncc45)nc(N4CCOCC4)c3s2)CC1 [Pictilisib] (partner 1 µM)
In short: (§1)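 Relative viability was taken as the ratio of nuclei in treated wells to nuclei in vehicle wells. Lung cancer cell lines in 1536-well plates received compounds by pin tool one day after seeding, either one drug alone or a fixed anchor-drug dose plus five library-drug doses (not always all listed) in √10 steps. Nuclei were counted on 4× images after 5 days of treatment, and values are medians of duplicate plates.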

AT-7519 + Foretinib = compound: O=C(NC1CCNCC1)c1n[nH]cc1NC(=O)c1c(Cl)cccc1Cl [AT-7519] + COc1cc2c(Oc3ccc(NC(=O)C4(C(=O)Nc5ccc(F)cc5)CC4)cc3F)ccnc2cc1OCCCN1CCOCC1 [Foretinib] (partner 0.25 µM)
In short: as §1

AT-7519 + Phenformin = compound: O=C(NC1CCNCC1)c1n[nH]cc1NC(=O)c1c(Cl)cccc1Cl [AT-7519] + N=C(N)NC(=N)NCCc1ccccc1 [Phenformin] (partner 250 µM)
In short: as §1

AT-7519 + Pemetrexed = compound: O=C(NC1CCNCC1)c1n[nH]cc1NC(=O)c1c(Cl)cccc1Cl [AT-7519] + Nc1nc2[nH]cc(CCc3ccc(C(=O)N[C@@H](CCC(=O)O)C(=O)O)cc3)c2c(=O)[nH]1 [Pemetrexed] (partner 0.2 µM)
In short: as §1

Cell Line: UMC-11
- relative viability ([1]; first compound 0.08 µM): 1.05
- relative viability ([1]; first compound 0.253 µM): 0.762
- relative viability ([1]; first compound 0.8 µM): 0.761
- relative viability ([1]; first compound 2.53 µM): 0.908
- relative viability ([1]; first compound 8 µM): 0.833
- relative viability (AT-7519 + Foretinib; first compound 0.01 µM): 1.1
- relative viability (AT-7519 + Foretinib; first compound 0.03162 µM): 0.934
- relative viability (AT-7519 + Foretinib; first compound 0.3162 µM): 0.838
- relative viability (AT-7519 + Foretinib; first compound 1 µM): 0.457
- relative viability (AT-7519 + Phenformin; first compound 0.01 µM): 0.319
- relative viability (AT-7519 + Phenformin; first compound 0.03162 µM): 0.339
- relative viability (AT-7519 + Phenformin; first compound 0.3162 µM): 0.308
- relative viability (AT-7519 + Phenformin; first compound 1 µM): 0.237
- relative viability (AT-7519 + Pemetrexed; first compound 0.01 µM): 0.807
- relative viability (AT-7519 + Pemetrexed; first compound 0.03162 µM): 0.801
- relative viability (AT-7519 + Pemetrexed; first compound 0.3162 µM): 0.586
- relative viability (AT-7519 + Pemetrexed; first compound 1 µM): 0.331
